Assay results as given in patent publication US6613317B1, “Volatile attractants for diabrotica species” (priority 1988, dated 2003).

Legend:
[1] = tested on: NCR; assay: Attraction to baited traps relative to controls (summary); assay type: in vivo, Diabrotica barberi; details: summary statement
Excerpt: 4-Methylphenylethanol, 4-chlorophenylethanol, 4-fluorophenylethanol, phenylethanol, phenylpropanol, 4-methoxyphenylethanol, 3-methoxyphenylethanol, 2-methoxyphenylethanol, 4-methoxyphenylpropanol, phenylethylamine, and phenylpropylamine attract NCR at rates approximately 5-50 times controls.

[2] = tested on: SCR; assay: Limit of response rating of squash blossom volatiles on sticky traps (Example 5); assay type: in vivo, Diabrotica undecimpunctata howardi; details: 24 hour; four replicate traps; 0.01 mg to 200 mg
Summary of the method: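 Adult Diabrotica beetles were tested against cylindrical sticky traps baited with cotton wicks holding 0.01 mg to 200 mg of individual Cucurbita maxima blossom volatiles. Response limit rated by trap catch.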

[3] = tested on: western corn rootworm (WCR); assay: Sticky trap attraction in corn, phenylethanol analogues (Example 6); assay type: in vivo, Diabrotica virgifera virgifera; details: Table 16; 100 mg per trap; four replicates; 24 hour
Method: Test chemicals (purchased from Aldrich Chemical Co.; Milwaukee, Wis.) were applied by capillary micropipettes to cotton dental wicks that were attached to tops of 1.0 liter cylindrical paper cartons covered with TangleTrap™, Grand Rapids, Mich. The trapping techniques used were as previously described in Example 1. Unless otherwise indicated, all treatments were made at a dosage of 100 mg or 100 μL of attractant per trap. Control traps had untreated wicks. Four replicates of treated and untreated traps were positioned randomly 10 meters apart on top of 1 m high posts along the edges of 25-50 ha. fields of hybrid corn (Zea mays), infested with adult NCR, SCR, and WCR beetles. Several experiments detailed in the Tables were made in a 0.4 ha plot of sweet corn (Illini X-tra Sweet).
Attraction of Diabrotica species adults of the sticky traps was measured by the mean number of beetles caught after 1 day (ca. 24 hours) exposure. The significance of the treatments was determined by analysis of variance and the individual means were separated by Duncan's multiple range test (Statistical Package for the Social Sciences, Nie, et al., 2nd. ed. McGraw-Hill, New York (1975). The data was logarithmically transformed for statistical analysis. Means and standard deviations are presented for the untransformed data. Significance levels were set at P=0.05 for all statistical analyses.

Q: Which “rate of attraction of NCR relative to controls” value [1] does the source give for OCC=Cc1ccccc1 [XVIII, cinnamyl alcohol] here?
A: 5-20 times

Q: What about the “Attractant Rating SCR (by limit of response)” value [2] of the same molecule?
A: +2 (10-30)

Q: What about the “Mean number of WCR per trap (±standard deviation)” value [3] of the same molecule?
A: 4.0 ± 1.6a per trap
